Earlier results as cited in PMC2099433, “The binding site for neohesperidin dihydrochalcone at the human sweet taste receptor” (BMC Structural Biology, 2007).

Molecular target: T1, hTAS1R2 + hTAS1R3 L782A^6.55 (Homo sapiens, UniProt Q7RTX0+Q8TE23, L782A)
T1 construct: expressed in transfected cells; host or cells: HEK293T cells stably expressing G16Gust44
T1 sequence (Q8TE23 20-839): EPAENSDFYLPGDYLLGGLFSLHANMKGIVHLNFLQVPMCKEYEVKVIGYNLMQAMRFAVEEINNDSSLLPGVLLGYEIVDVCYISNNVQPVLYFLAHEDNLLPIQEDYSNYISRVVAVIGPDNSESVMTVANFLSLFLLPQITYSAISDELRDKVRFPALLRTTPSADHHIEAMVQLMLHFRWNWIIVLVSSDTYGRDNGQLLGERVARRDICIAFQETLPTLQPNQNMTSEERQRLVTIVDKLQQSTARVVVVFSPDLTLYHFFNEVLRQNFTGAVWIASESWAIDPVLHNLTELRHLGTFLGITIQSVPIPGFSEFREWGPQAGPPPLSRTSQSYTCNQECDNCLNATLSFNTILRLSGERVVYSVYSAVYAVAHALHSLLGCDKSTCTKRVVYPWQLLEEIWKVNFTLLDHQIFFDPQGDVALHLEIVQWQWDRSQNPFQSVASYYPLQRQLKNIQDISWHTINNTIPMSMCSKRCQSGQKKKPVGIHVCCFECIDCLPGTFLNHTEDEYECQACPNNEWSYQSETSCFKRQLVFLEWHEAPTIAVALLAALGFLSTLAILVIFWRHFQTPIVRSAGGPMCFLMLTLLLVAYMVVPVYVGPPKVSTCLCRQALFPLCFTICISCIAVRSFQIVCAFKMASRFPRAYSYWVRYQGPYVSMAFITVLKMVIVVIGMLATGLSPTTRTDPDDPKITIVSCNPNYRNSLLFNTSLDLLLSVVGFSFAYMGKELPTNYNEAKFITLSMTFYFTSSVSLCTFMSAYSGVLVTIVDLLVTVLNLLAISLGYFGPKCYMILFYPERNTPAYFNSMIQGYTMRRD
T1 sequence (Q7RTX0 21-852 L782A): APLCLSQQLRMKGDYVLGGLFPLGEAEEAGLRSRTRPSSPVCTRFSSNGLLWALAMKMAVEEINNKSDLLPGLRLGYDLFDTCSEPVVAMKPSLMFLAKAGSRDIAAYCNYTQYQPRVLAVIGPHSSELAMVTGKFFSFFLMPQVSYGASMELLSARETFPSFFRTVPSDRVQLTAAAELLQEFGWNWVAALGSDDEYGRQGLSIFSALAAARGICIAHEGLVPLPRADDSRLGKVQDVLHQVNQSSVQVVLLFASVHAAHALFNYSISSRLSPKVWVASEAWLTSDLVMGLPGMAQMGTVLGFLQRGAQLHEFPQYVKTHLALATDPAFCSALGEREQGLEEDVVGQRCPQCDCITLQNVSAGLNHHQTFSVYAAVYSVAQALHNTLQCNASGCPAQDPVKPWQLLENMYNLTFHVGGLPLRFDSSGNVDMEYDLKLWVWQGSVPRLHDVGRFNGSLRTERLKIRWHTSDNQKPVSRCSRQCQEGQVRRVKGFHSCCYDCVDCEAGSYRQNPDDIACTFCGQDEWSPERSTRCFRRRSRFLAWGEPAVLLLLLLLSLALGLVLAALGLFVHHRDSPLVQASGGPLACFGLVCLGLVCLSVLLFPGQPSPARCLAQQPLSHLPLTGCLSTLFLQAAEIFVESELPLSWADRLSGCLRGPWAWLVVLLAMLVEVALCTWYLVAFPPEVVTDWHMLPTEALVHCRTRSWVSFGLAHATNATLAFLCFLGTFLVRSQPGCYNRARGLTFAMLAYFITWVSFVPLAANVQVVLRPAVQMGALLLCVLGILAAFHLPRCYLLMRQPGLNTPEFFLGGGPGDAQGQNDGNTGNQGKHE
Set-up: method as in PMID 15668251
Conditions: mutation L782A^6.55; cited from earlier work

In the case of `O=S(=O)(O)NC1CCCCC1` [cyclamate], the receptor activation is given as “abolished activation”.
